US7495018B2, “Substituted 1,3-thiazole compounds, their production and use” (Takeda Pharmaceutical Company Limited, priority 2000, dated 2009)

Row | melting point | SMILES
1 | 148 °C | Cc1cccc(-c2nc(N(C)C(=O)c3cccnc3)sc2-c2ccnc(NC3CCCC3)c2)c1 [Example Compound 42-9, N-[5-(2-cyclopentylamino-4-pyridyl)-4-(3-methylphenyl)-1,3-thiazol-2-yl]N-methylnicotinamide]
2 | 84 to 85 °C | CCCCCC(=O)Nc1cc(-c2sc(CC)nc2-c2cccc(C)c2)ccn1 [Example 87-2, N-[4-[2-ethyl-4-(3-methylphenyl)-1,3-thiazol-5-yl]-2-pyridyl]hexanamide]
3 | 219 to 222 °C | Cc1cc(C)cc(-c2nc(NC(=O)Nc3ccccc3)sc2-c2cc(C)nc(C)c2)c1 [Example Compound 53-1, N-[4-(3,5-dimethylphenyl)-5-(2,6-dimethyl-4-pyridyl)-1,3-thiazol-2-yl]-N′-phenylurea]
4 | 171 to 172 °C | Cc1cccc(-c2nc(N(C)C(=O)c3ccc(Cl)nc3)sc2-c2ccnc(NC3CCCCC3)c2)c1 [Example Compound 44-4, 6-chloro-N-[5-(2-cyclohexylamino-4-pyridyl)-4-(3-methylphenyl)-1,3-thiazol-2-yl]-N-methylnicotinamide]
5 | 211 to 212 °C | CNc1nc(-c2cccc(C)c2)c(-c2ccnc(NC3CCCCC3)c2)s1 [Example Compound 36-2, N-methyl-[5-(2-cyclohexylamino-4-pyridyl)-4-(3-methylphenyl)-1,3-thiazol-2-yl]amine]
6 | 154 to 156 °C | Cc1cccc(-c2nc(-c3ccc(S(C)(=O)=O)cc3)sc2-c2ccnc(NC3CCCC3)c2)c1 [Example Compound 36-7, N-cyclopentyl-4-[4-(3-methylphenyl)-2-(4-methylsulfonylphenyl)-1,3-thiazol-5-yl]-2-pyridylamine]
7 | 119 to 120 °C | CCc1nc(-c2ccc(SC)cc2)c(-c2ccnc(N)c2)s1 [Example Compound 20-5, 4-[2-ethyl-4-[4-(methylthio)phenyl]-1,3-thiazol-5-yl]-2-pyridylamine]
8 | 222 to 223 °C | CC(=O)Nc1cc(-c2sc(-c3ccc(S(C)(=O)=O)cc3)nc2-c2cccc(C)c2)ccn1 [Example 98-1, N-[4-[4-(3-methylphenyl)-2-(4-methylsulfonylphenyl)-1,3-thiazol-5-yl]-2-pyridyl]acetamide]
9 | 162 to 163 °C | CC(=O)Nc1cc(-c2sc(C)nc2-c2cccc(C)c2)ccn1 [Example 82-10, N-[4-[2-methyl-4-(3-methylphenyl)-1,3-thiazol-5-yl]-2-pyridyl]acetamide]
10 | 175 to 176 °C | CCc1nc(-c2ccccc2)c(-c2ccnc(NC(C)=O)c2)s1 [Example Compound 82-1, N-[4-(2-ethyl-4-phenyl-1,3-thiazol-5-yl)-2-pyridyl]acetamide]
11 | 110 to 113 °C | CC(=O)Nc1cc(-c2sc(C(C)OC(=O)c3ccccc3)nc2-c2cccc(C)c2)ccn1 (stereo not drawn) [Example 110, 1-[5-(2-acetylamino-4-pyridyl)-4-(3-methylphenyl)-1,3-thiazol-2-yl]ethyl benzoate]
12 | 224 to 226 °C | COc1ccc(C(=O)Nc2nc(-c3cccc(C)c3)c(-c3ccnc(C)c3)s2)cn1 [Example Compound 47, 6-methoxy-N-[4-(3-methylphenyl)-5-(2-methyl-4-pyridyl)-1,3-thiazol-2-yl]nicotinamide]
13 | 233 to 234 °C | Cc1cccc(-c2nc(NC(=O)c3ccc(C)nc3)sc2-c2ccnc(C)c2)c1 [Example Compound 45, 6-methyl-N-[4-(3-methylphenyl)-5-(2-methyl-4-pyridyl)-1,3-thiazol-2-yl]nicotinamide]
14 | 109 to 110 °C | CCCCC(=O)Nc1cc(-c2sc(CC)nc2-c2cccc(Cl)c2)ccn1 [Example 88-1, N-[4-[4-(3-chlorophenyl)-2-ethyl-1,3-thiazol-5-yl]-2-pyridyl]valeramide]
15 | 149 to 150 °C | CC(=O)Nc1cc(-c2scnc2-c2cccc(C)c2)ccn1 [Example 82-11, N-[4-[4-(3-methylphenyl)-1,3-thiazol-5-yl]-2-pyridyl]acetamide]
16 | 182 to 184 °C | Cc1cccc(-c2nc(-c3ccc(S(C)(=O)=O)cc3)sc2-c2cc(C)nc(C)c2)c1 [Example Compound 58-2, 5-(2,6-dimethyl-4-pyridyl)-4-(3-methylphenyl)-2-(4-methylsulfonylphenyl)-1,3-thiazole]
17 | 131 to 132 °C | CCC(=O)Nc1cc(-c2sc(C(C)O)nc2-c2cccc(Cl)c2)ccn1 (stereo not drawn) [Example 105, N-[4-[4-(3-chlorophenyl)-2-(1-hydroxyethyl)-1,3-thiazol-5-yl]-2-pyridyl]propionamide]
18 | 90 to 91 °C | Cc1cccc(-c2nc(-c3ccc(F)cc3F)sc2-c2ccnc(C)c2)c1 [Example Compound 14-5, 2-(2,4-difluorophenyl)-4-(3-methylphenyl)-5-(2-methyl-4-pyridyl)-1,3-thiazole]
19 | 153 to 154 °C | CCc1nc(-c2cccc(F)c2)c(-c2ccnc(N)c2)s1 [Example Compound 20-6, 4-[2-ethyl-4-(3-fluorophenyl)-1,3-thiazol-5-yl]-2-pyridylamine]

Row | melting point | SMILES
20 | 141 to 142 °C | CCC(=O)Nc1cc(-c2sc(C(C)(F)F)nc2-c2cccc(Cl)c2)ccn1 [Example 102-4, N-[4-[4-(3-chlorophenyl)-2-(1,1-difluoroethyl)-1,3-thiazol-5-yl]-2-pyridyl]propionamide]
21 | 121 to 122 °C | CCC(=O)Nc1cc(-c2sc(CC)nc2-c2cccc(F)c2)ccn1 [Example 84-5, N-[4-[2-ethyl-4-(3-fluorophenyl)-1,3-thiazol-5-yl]-2-pyridyl]propionamide]
22 | 243 to 245 °C | Nc1nc(-c2ccc(F)cc2)c(-c2ccnc(F)c2)s1 [Example Compound 7-3, [4-(4-fluorophenyl)-5-(2-fluoro-4-pyridyl)-1,3-thiazol-2-yl]amine]
23 | 160 to 161 °C | CC(=O)Nc1cc(-c2sc(C3CCN(C(C)=O)CC3)nc2-c2cccc(Cl)c2)ccn1 [Example 93, N-[4-[2-(1-acetylpiperidin-4-yl)-4-(3-chlorophenyl)-1,3-thiazol-5-yl]-2-pyridyl]acetamide]
24 | 157 to 159 °C | Cc1cccc(-c2nc(-c3ccc(S(C)(=O)=O)cc3)sc2-c2ccnc(NCC3CCCCC3)c2)c1 [Example Compound 37-3, N-cyclohexylmethyl-4-[4-(3-methylphenyl)-2-(4-methylsulfonylphenyl)-1,3-thiazol-5-yl]-2-pyridylamine]
25 | 188 to 190 °C | Cc1cccc(-c2nc(NC(=O)Nc3ccccc3)sc2-c2ccnc(NC3CCCC3)c2)c1 [Example Compound 53-3, N-[5-(2-cyclopentylamino-4-pyridyl)-4-(3-methylphenyl)-1,3-thiazol-2-yl]-N′-phenylurea]
26 | 152 to 153 °C | CCC(=O)Nc1cc(-c2sc(CC)nc2-c2ccc(Cl)cc2)ccn1 [Example 84-6, N-[4-[4-(4-chlorophenyl)-2-ethyl-1,3-thiazol-5-yl]-2-pyridyl]propionamide]
27 | 187 to 188 °C | CCC(=O)Nc1cc(-c2sc(CC)nc2-c2cccs2)ccn1 [Example Compound 30-10, N-[4-[2-ethyl-4-(2-thienyl)-1,3-thiazol-5-yl]2-pyridyl]propionamide]
28 | 85 to 86 °C | CCC(=O)Nc1cc(-c2sc(CCSC)nc2-c2cccc(C)c2)ccn1 [Example 102-1, N-[4-[4-(3-methylphenyl)-2-[2-(methylthio)ethyl]-1,3-thiazol-5-yl]-2-pyridyl]propionamide]
29 | 147 to 148 °C | CCOC(=O)c1nc(-c2cccc(C)c2)c(-c2ccnc(N)c2)s1 [Example Compound 18-6, Ethyl [5-(2-amino-4-pyridyl)-4-(3-methylphenyl)-1,3-thiazol-2-yl]carboxylate]
30 | 197 to 199 °C | Cc1cccc(-c2nc(-c3ccc(S(C)(=O)=O)cc3)sc2-c2ccnc(NC3CCCCC3)c2)c1 [Example Compound 36-5, N-cyclohexyl-4-[4-(3-methylphenyl)-2-(4-methylsulfonylphenyl)-1,3-thiazol-5-yl]-2-pyridylamine]
31 | 211 to 212 °C | Cc1cccc(-c2nc(NC(=O)c3ccc(Cl)nc3)sc2-c2ccnc(NC3CCCC3)c2)c1 [Example Compound 44-2, 6-chloro-N-[5-(2-cyclopentylamino-4-pyridyl)-4-(3-methylphenyl)-1,3-thiazol-2-yl]nicotinamide]
32 | 214 to 216 °C | Cc1cccc(N2C=C(c3cc(C)nc(C)c3)SC2N)c1 (stereo not drawn) [Example Compound 7-6, [5-(2,6-dimethyl-4-pyridyl)-3-(3-methylphenyl)-1,3-thiazol-2-yl]amine]
33 | 134 to 135 °C | CCc1nc(-c2ccc(F)c(C)c2)c(-c2ccnc(N)c2)s1 [Example Compound 20-9, 4-[2-ethyl-4-(4-fluoro-3-methylphenyl)-1,3-thiazol-5-yl]-2-pyridylamine]
34 | 131 to 132 °C | Cc1cccc(-c2nc(CC(F)(F)F)sc2-c2ccnc(N)c2)c1 [Example Compound 18-3, 4-[4-(3-methylphenyl)-2-(2,2,2-trifluoroethyl)-1,3-thiazol-5-yl]-2-pyridylamine]
35 | 255 to 256 °C | Cc1cccc(-c2nc(NC(=O)c3ccc(Cl)nc3)sc2-c2ccnc(NC3CCCCC3)c2)c1 [Example Compound 44-1, 6-chloro-N-[5-(2-cyclohexylamino-4-pyridyl)-4-(3-methylphenyl)-1,3-thiazol-2-yl]nicotinamide]
36 | 136 to 137 °C | CCc1nc(-c2ccc(Cl)cc2)c(-c2ccnc(N)c2)s1 [Example Compound 20-7, 4-[4-(4-chlorophenyl)-2-ethyl-1,3-thiazol-5-yl]-2-pyridylamine]
37 | 121 to 122 °C | CCCc1cccc(-c2nc(CC)sc2-c2ccnc(NC(C)=O)c2)c1 [Example 82-9, N-[4-[2-ethyl-4-(3-propylphenyl)-1,3-thiazol-5-yl]-2-pyridyl]acetamide]

Row | SMILES | melting point
38 | CCc1nc(-c2ccccc2)c(-c2ccnc(NC(=O)OC(C)(C)C)c2)s1 [Example Compound 79-1, 5-[2-(tert-butoxycarbonylamino)-4-pyridyl]-2-ethyl-4-phenyl-1,3-thiazole] | 154 to 155 °C
39 | CCc1nc(-c2cccc(Br)c2)c(-c2ccnc(NC(=O)OC(C)(C)C)c2)s1 [Example Compound 75-1, 4-(3-bromophenyl)-5-[2-(tert-butoxycarbonylamino)-4-pyridyl]-2-ethyl-1,3-thiazole] | 172 to 174 °C
